Experiments:
[1] = target: horse spleen apoferritin (HSAF) (Equus caballus, UniProt P02791); test: isothermal titration calorimetry; format: binding
[2] = target: T1, Shaw2 K+ channel (Shaw2 F335A) (Drosophila melanogaster, UniProt P17972, F335A); test: two-electrode voltage clamp, Xenopus oocytes; format: cell-based; settings: read-out: % inhibition at 2 mM
T1 sequence (P17972 1-498 F335A): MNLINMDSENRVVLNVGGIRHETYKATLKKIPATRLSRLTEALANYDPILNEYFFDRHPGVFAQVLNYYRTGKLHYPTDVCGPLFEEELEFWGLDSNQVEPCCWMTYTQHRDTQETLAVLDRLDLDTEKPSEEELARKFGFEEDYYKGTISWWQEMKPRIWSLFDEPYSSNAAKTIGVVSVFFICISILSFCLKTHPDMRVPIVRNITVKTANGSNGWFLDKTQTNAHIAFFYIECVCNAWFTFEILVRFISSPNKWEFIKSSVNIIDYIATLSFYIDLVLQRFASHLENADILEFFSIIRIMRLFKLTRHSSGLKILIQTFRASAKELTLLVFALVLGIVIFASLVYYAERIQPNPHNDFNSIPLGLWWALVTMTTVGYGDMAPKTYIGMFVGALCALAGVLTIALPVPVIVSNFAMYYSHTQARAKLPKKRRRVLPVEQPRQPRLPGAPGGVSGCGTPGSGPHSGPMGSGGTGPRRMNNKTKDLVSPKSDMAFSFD

horse spleen apoferritin (HSAF), sequence (P02791 2-175): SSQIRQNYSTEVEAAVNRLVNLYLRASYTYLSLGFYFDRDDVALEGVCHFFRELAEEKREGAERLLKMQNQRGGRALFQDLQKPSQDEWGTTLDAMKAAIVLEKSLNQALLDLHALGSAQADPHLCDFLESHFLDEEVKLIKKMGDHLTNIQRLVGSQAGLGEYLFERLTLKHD
horse spleen apoferritin (HSAF), sequence (Q8MIP0 2-182 partner): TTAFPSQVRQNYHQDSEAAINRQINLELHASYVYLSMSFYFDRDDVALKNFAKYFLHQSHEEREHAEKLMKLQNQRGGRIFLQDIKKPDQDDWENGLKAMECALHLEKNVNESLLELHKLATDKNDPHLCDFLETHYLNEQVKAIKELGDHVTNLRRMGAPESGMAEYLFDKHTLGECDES

SMILES	Kd [1] [µM]	inhibition at 2000 µM [2] [%]
FC(F)OC(Cl)C(F)(F)F (stereo not shown) [isoflurane]	58 ± 2	67
FC(F)(F)C(Cl)OC(F)(F)C1N=N1 (racemic) [compound 1, azi-isoflurane]	6 ± 1	77 ± 0.2

— publication PMC2837340 (ACS Chemical Neuroscience, 2009)
